According to article PMC6098585, “Characterization and structure-activity relationships of indenoisoquinoline-derived topoisomerase I inhibitors in unsilencing the dormant Ube3a gene associated with Angelman syndrome” (Molecular Autism, 2018):
Where two headings read alike, the source gives them in different places.

What was measured:
paternal Ube3a-YFP [1] = test: Paternal Ube3a-YFP unsilencing, fluorescence immunostaining and high-content imaging in primary cortical neurons (Ube3a^m+/pYFP); type: cell-based, mouse; settings: for neurons expressing paternal Ube3a-YFP above threshold: 0.3 μM, n = 4 wells, YFP-positive cells / total Hoechst-positive cells
Protocol: We followed the protocols for fluorescent immunostaining and high-content imaging of cortical neurons as previously described. Briefly, 72 h after drug treatment, the cells were fixed with 4% paraformaldehyde at room temperature for 15 min. After rinsing with phosphate-buffered saline (PBS) three times, the cells were permeabilized with 1% Triton-X 100 in PBS, followed by blocking with 5% NGS and 0.1% Triton-X 100 in PBS at room temperature for 30 min. After blocking, the cells were incubated with primary antibody, rabbit anti-GFP (1:1000, Novus Biologicals), at 4 °C overnight. The cells were then briefly rinsed with PBS followed by incubation with secondary antibody, goat anti-rabbit Alexa Fluor 488 (1:200, Thermo Fisher/Invitrogen), at room temperature. One hour after secondary antibody incubation, the cells were rinsed with PBS and fluorescent images were acquired using a BD Pathway 855 bioimager. The acquired images were processed by CellProfiler to count the number of positive cells and measure fluorescent intensity (Additional file 2). To determine the percentage of neurons expressing paternal Ube3a-YFP, we counted the total number of cells (Hoechst) and YFP-positive cells, and the number of YFP-positive cells was divided by the total number of cells. Fluorescence intensity was measured in neurons expressing unsilenced paternal Ube3a-YFP and normalized to vehicle control.

[2] = Cytotoxicity test (Cyto Tox-Glo) in cultured cortical neurons; settings: mouse, primary cultured cortical neurons from E14.5 embryos
paternal UBE3A = test: Western blot of paternal UBE3A in cultured neurons from AS model mice (Ube3a^m−/p+); type: cell-based, mouse; settings: 0.3 μM, 72 h, vs DMSO, n = 3/group
Protocol: (§1) We followed the same procedures of Western blot analysis as previously described. In brief, 72 h after drug treatment, we collected the cultured neurons from 6-well plates and extracted total protein with protein extraction buffer. Bradford assay was performed to measure protein concentration, and 30 μg of total protein was loaded for Bis-polyacrylamide gel electrophoresis (Bio-Rad). Electrophoresed proteins were transferred to nitrocellulose membrane (0.45 μm, Bio-Rad). The membranes were blocked with 5% non-fat milk in TBS-T at room temperature for 30 min followed by overnight 4 °C incubation with primary antibodies (rabbit anti-GFP, 1:1000, Novus Biologicals; rabbit anti-Ube3a, 1:1000, Bethyl Lab; mouse anti-actin; 1:5000, Sigma). The next day, the membranes were rinsed with TBS-T three times and incubated with HPR-conjugated secondary antibodies for 1 h at room temperature (goat anti-rabbit, 1:1000, Vector Lab or goat anti-mouse, 1:1000, Vector Lab). Following secondary antibody incubation, the membranes were rinsed with TBS-T at room temperature for 1 h (4–5 times) and ECL substrates (Bio-Rad) were used to visualize immunostaining using an Amersham Imager 600 (AI600, GE Life Sciences).

paternal Ube3a-YFP [3] = test: Western blot of paternal UBE3A-YFP in cultured neurons from Ube3a^m+/pYFP mice; type: cell-based, mouse; settings: 0.3 μM, 72 h, n = 3/group
Protocol: as §1

Top1 = settings: cited from earlier work
MDR1 = test system: MDR1; set-up: method as in PMID 17974983; settings: cited from earlier work
ABCG2 = test system: ABCG2; set-up: method as in PMID 17974983; settings: cited from earlier work
in vitro = settings: mouse
[4] = set-up: method as in PMID 27169793; settings: at the concentrations examined; cited from earlier work
[5] = set-up: method as in earlier work; settings: cited from earlier work
[6] = Table S1, nine analogues, unsilencing of paternal UBE3A-YFP, 72 h
[7] = Table S1, nine analogues, unsilencing of paternal UBE3A-YFP, 72 h, 'ambiguous' = limited effective dose range, read-out: EC50
[8] = Mus musculus, Primary cortical neuron, unsilencing of paternal UBE3A-YFP, drug 72 h from DIV 7, n = 4/group, estimated from Fig. 4, read-out: EC50
[9] = maximum response of unsilencing paternal Ube3a-YFP, fluorescence intensity normalized to vehicle control, 72 h, estimated from Fig. 4

COc1cc2c3c(n(C[C@H](O)CO)c(=O)c2cc1OC)-c1cc2c(cc1C3=O)OCO2 [DB-IV-50]
Emax (paternal Ube3a-YFP [1]; [6]): 1.39 (±0.07)
EC50 (paternal Ube3a-YFP [1]; [7]): 121 nM

COc1cc2c3c(n(C[C@@H](O)CO)c(=O)c2cc1OC)-c1cc2c(cc1C3=O)OCO2 [DB-IV-58]
neurons expressing paternal Ube3a-YFP above threshold (paternal Ube3a-YFP [1]; 72 h): 17.7 ± 3.87%
EC50 (paternal Ube3a-YFP [1]; [8]): 31 nM
Emax (paternal Ube3a-YFP [1]; [9]): 1.45 (± 0.12)
CC50 at 72 h [2]: 2010 nM
paternal UBE3A protein level (Western blot, normalized to actin) (paternal UBE3A): high level of paternal UBE3A protein
paternal UBE3A-YFP protein level (Western blot, normalized to actin) (paternal Ube3a-YFP [3]): led to paternal UBE3A-YFP protein production

O=C1c2ccccc2-c2c1c1ccc([N+](=O)[O-])cc1c(=O)n2CC(O)C(O)C(O)CO (centres unmarked) [DB-V-37]
neurons expressing paternal Ube3a-YFP above threshold (paternal Ube3a-YFP [1]; 72 h): 14.1 ± 3.55%
EC50 (paternal Ube3a-YFP [1]; [8]): 29.9 nM
Emax (paternal Ube3a-YFP [1]; [9]): 1.48 (± 0.08)
CC50 at 72 h [2]: 2020 nM
paternal UBE3A protein level (Western blot, normalized to actin) (paternal UBE3A): high level of paternal UBE3A protein
paternal UBE3A-YFP protein level (Western blot, normalized to actin) (paternal Ube3a-YFP [3]): led to paternal UBE3A-YFP protein production

COc1cc2c3c(n(CCCn4ccnc4)c(=O)c2cc1OC)-c1cc2c(cc1C3=O)OCO2 [Indimitecan, indimitecan]
neurons expressing paternal Ube3a-YFP above threshold (paternal Ube3a-YFP [1]; 72 h): 23.9 ± 1.72%
EC50 (paternal Ube3a-YFP [1]; [8]): 7.47 nM
Emax (paternal Ube3a-YFP [1]; [9]): 1.47 (± 0.10)
CC50 at 72 h [2]: 789 nM
inhibition of Top1 enzymatic activity (Top1): ~100%
paternal UBE3A protein level (Western blot, normalized to actin) (paternal UBE3A): high level of paternal UBE3A protein
paternal UBE3A-YFP protein level (Western blot, normalized to actin) (paternal Ube3a-YFP [3]): led to paternal UBE3A-YFP protein production

COc1cc2c3c(n(CCCN4CCOCC4)c(=O)c2cc1OC)-c1cc2c(cc1C3=O)OCO2 [Indotecan, indotecan]
neurons expressing paternal Ube3a-YFP above threshold (paternal Ube3a-YFP [1]; 72 h): 37.1 ± 5.19%
EC50 (paternal Ube3a-YFP [1]; Mus musculus, Primary cortical neuron, read-out: EC50 to produce Ube3a unsilencing): ~26 nM
EC50 (paternal Ube3a-YFP [1]; [8]): 25.6 nM
Emax (paternal Ube3a-YFP [1]; [9]): 1.78 (± 0.13)
substrate for transporter MDR1 (MDR1): not a substrate
substrate for transporter ABCG2 (ABCG2): not a substrate
inhibition of Top1 enzymatic activity (Top1): ~100%
CC50 at 72 h (in vitro): 2010 nM
paternal UBE3A protein level (Western blot, normalized to actin) (paternal UBE3A): high level of paternal UBE3A protein
tolerability in a clinical population [4]: well tolerated
CNS penetration [5]: favorable CNS penetration
paternal UBE3A-YFP protein level (Western blot, normalized to actin) (paternal Ube3a-YFP [3]): led to paternal UBE3A-YFP protein production

C=CCn1c2c(c3cc(OC)c(OC)cc3c1=O)C(=O)c1cc3c(cc1-2)OCO3 [MJ-II-66A]
Emax (paternal Ube3a-YFP [1]; [6]): 1.20 (±0.05)
EC50 (paternal Ube3a-YFP [1]; [7]): ~26.8 nM
range of doses that produce Ube3a-YFP unsilencing before toxicities (paternal Ube3a-YFP [1]; dose-response 1E-10 to 3E-5 M, 72 h): very limited range of doses

COc1cc2c3c(n(CCCO)c(=O)c2cc1OC)-c1cc2c(cc1C3=O)OCO2 [MNR-IV-64]
Emax (paternal Ube3a-YFP [1]; [6]): 1.37 (±0.09)
EC50 (paternal Ube3a-YFP [1]; [7]): 634 nM

CC[C@@]1(O)C(=O)OCc2c1cc1n(c2=O)Cc2cc3c(CN(C)C)c(O)ccc3nc2-1 [Topotecan]
neurons expressing paternal Ube3a-YFP above threshold (paternal Ube3a-YFP [1]; 72 h): 33.0 ± 2.56%
EC50 (paternal Ube3a-YFP [1]; [8]): 30.4 nM
Emax (paternal Ube3a-YFP [1]; [9]): 1.51 (± 0.11)
CC50 at 72 h (in vitro): 2300 nM
paternal UBE3A protein level (Western blot, normalized to actin) (paternal UBE3A): high level of paternal UBE3A protein
paternal UBE3A-YFP protein level (Western blot, normalized to actin) (paternal Ube3a-YFP [3]): led to paternal UBE3A-YFP protein production
